In brackets after ≈: the same amount, converted by molar mass. Read-outs that look alike come from different tables or passages of the source. Where a SMILES comes first, the peptide text is derived from it. Bridges are numbered along the chain shown (N, C = ends). [ ]: non-standard residue; d: D form. The star is where a group is joined. aThr = C[C@H](O)[C@H](N)C(=O)O; X2 = CC[C@@H](C)CC/C=C/C(=O)*; X1 = CC[C@@H](C)CCCCC(=O)*; Dab = NCC[C@H](N)C(=O)O
What was measured:
[1] = test system: Acinetobacter baumannii ATCC19606; format: cell-based
Procedure: Minimal inhibitory concentrations (MIC) of the polymyxin B1 (PMB1) and the 2′,3′-dehydropolymyxin B1 against Acinetobacter baumannii were determined using a microdilution broth method as instructed by Clinical & Laboratory Standards Institute (CLSI). Specifically, Acinetobacter baumannii ATCC19606 (standard strain) was inoculated into a 96-well plate at a density of […], to which a PMB1 solution (as control) or a 2′,3′-dehydropolymyxin B1 solution was added to a series of final concentrations of 0.125, 0.25, 0.5, 1, 2, 4 and 8 mg/L. The 96-well plate was incubated at 35±2° C. for 18-24 h, and then observed for the turbidity in each test well, where the lowest concentration of PMB1 or 2′,3′-dehydropolymyxin B1 under which the system in the test well became clear was considered as the corresponding MIC.

[2] = test system: Pseudomona aeruginosa ATCC27853; format: cell-based
Procedure: Furthermore, the polymyxin B1 (PMB1) and the 2′,3′-dehydropolymyxin B1 were also determined for MIC against Pseudomona aeruginosa using the microdilution broth method as instructed by CLSI. Similarly, the Pseudomona aeruginosa ATCC27853 (standard strain) was inoculated into a 96-well plate at a density of 10^6 CFU/mL, to which a PMB1 solution (as control) or a 2′,3′-dehydropolymyxin B1 solution was added to a series of final concentrations of 0.125, 0.25, 0.5, 1, 2, 4 and 8 mg/L. The 96-well plate was incubated at […] for 18-24 h, and then observed for the turbidity in each test well, where the lowest concentration of PMB1 or 2′,3′-dehydropolymyxin B1 under which the system in the test well became clear was considered as the corresponding MIC.

Work on CC[C@@H](C)CC/C=C/C(=O)N[C@@H](CCN)C(=O)N[C@H](C(=O)N[C@@H](CCN)C(=O)N[C@H]1CCNC(=O)[C@H]([C@H](C)O)NC(=O)[C@H](CCN)NC(=O)[C@H](CCN)NC(=O)[C@H](CC(C)C)NC(=O)[C@@H](Cc2ccccc2)NC(=O)[C@H](CCN)NC1=O)[C@H](C)O [2′,3′-dehydropolymyxin B1] (X2-[Dab][aThr][Dab][Dab][Dab][dF]L[Dab][Dab][aThr]; lactam 4-C) yielded an MIC ([1]; ATCC19606) of 0.5 µg/mL (≈ 0.416 µM) and an MIC ([2]; ATCC27853) of 1 µg/mL (≈ 0.832 µM).

Compound CC[C@@H](C)CCCCC(=O)N[C@@H](CCN)C(=O)N[C@H](C(=O)N[C@@H](CCN)C(=O)N[C@H]1CCNC(=O)[C@H]([C@H](C)O)NC(=O)[C@H](CCN)NC(=O)[C@H](CCN)NC(=O)[C@H](CC(C)C)NC(=O)[C@@H](Cc2ccccc2)NC(=O)[C@H](CCN)NC1=O)[C@H](C)O [Polymyxin B1, polymyxin B1] (X1-[Dab][aThr][Dab][Dab][Dab][dF]L[Dab][Dab][aThr]; lactam 4-C) has an MIC ([1]; Acinetobacter baumannii ATCC19606 (standard strain), 96-well plate, 35±2° C., 18-24 h, turbidity) of 1 µg/mL (≈ 0.831 µM) and an MIC ([2]; Pseudomona aeruginosa ATCC27853 (standard strain), 96-well plate, 18-24 h, turbidity) of 1 µg/mL (≈ 0.831 µM).

— patent publication US11440940B2, “Polymyxin B component or salt thereof, and preparation and application thereof” (SPH NO.1 BIOCHEMICAL & PHARMACEUTICAL CO.,LTD., priority 2020, dated 2022)
